What was measured:
[1] = tested on: BV2 microglial cells; experiment: LPS-induced TNFα secretion by BV2 microglia cell cultures (ELISA); assay type: cell-based, murine; details: for effect on lipopolysaccharide-induced TNFα secretion: THC 0.1, 0.5 and 1 µM, CBDA 0.2, 1 and 2 µM, CBC 0.1, 1 and 2 µM, α-pinene, β-pinene, limonene 25 or 100 µM; for IC50: Mus musculus, BV-2, read-out: IC50 for inhibiting LPS-induced TNFα release; for levels of TNFα compared to cultures treated with vehicle and LPS: 24-hours incubation, CBD 10 but not 1 µM, linalool 100 but not 25 µM, kaempferol dose-dependently at 10, 25 and 50 µM, quercetin 10 and 25 but not 5 µM
Protocol: (§1) The BV2 murine microglial cell line is used in these studies.
(§2) The BV2 cells are cultured at 37° C. in a humidified atmosphere with 5% CO2 in high D-glucose (4.5 g/L) Dulbecco’s modified Eagle’s medium (Sigma, Rehovot, Israel) supplemented with 5% heat-inactivated fetal bovine serum, streptomycin (100 µg/ml), and penicillin (100 units/ml) and sodium pyruvate (1 mM; all from Biological Industries Ltd., Kibbutz Beit Haemek, Israel). 24 hours before experiments with LPS stimulation, the BV2 cells are split into 24 well plates, 2×10^5 cells per well, covered with 1 ml of growth medium and allowed to attach overnight. 24 hr before experiments with α-synuclein, the BV2 cells are split into 96-well plates, 50,000 (5×10^4) cells per well, covered with 200 µl of growth medium and allowed to attach overnight. Cultures of BV2 microglia cells are first treated by an individual cannabinoid, or terpene or flavonoid selected from: Cannabidiol (CBD), Δ-9-tetrahydrocannabinol (THC), Δ-8-tetrahydrocannabinol (THC), cannabigerol (CBG), cannabichromene (CBC), cannabigerolic acid (CBGA), Cannabidiolic acid (CBDA), THC acid (THCA), cannabichromenic Acid (CBCA), Cannabidivarin (CBDV), tetrahydrocannabivarin (THCV), Cannabichromevarin (CBCV), Cannabichromerocin ([…]), Cannabivarin (CBV), Cannabicitran (CBT), Cannabinol (CBN), Cannabicyclol (CBL), Cannabigerorcin (CBGO), Cannabinodiol (CBND), β-caryophyllene, β-elemene, β-myrcene, linalool, α-pinene, β-pinene, eucalyptol, alpha-terpineol, valencene, geraniol (lemonol), bisabolol, nerolidol, ocimene, terpinolene, humulene, α-terpinene, camphene, fenchol, α-phellandrene, Δ3-carene, γ-cardinene, sabinene, limonene, β-amyrin, cycloartenol, cannflavin A, cannflavin B, kaempferol, quercetin, luteolin, apigenin, canniprene, orientin, β-sitosterol, vitexin, isovitexin, and chrysin. Additional cultures of BV2 microglia cells are treated by an individual cannabinoid, with at least one additional cannabinoid, and/or terpene, and/or flavonoid, and/or celecoxib. Additional cultures are exposed to the vehicle of these compounds (cremophor, ethanol and PBS, 1:1:18 (v/v/v)) (FIG. 2A). In some studies, cultures of BV2 microglia cells are treated by a specific whole plant cannabis extract, with or without supplementation with cannabinoid(s), and/or terpene(s) and/or flavonoid(s), and/or celecoxib (FIG. 2B).
For each individual cannabinoid mentioned above, 3-4 concentrations are used, ranging from 0.1 to 10 µM. For ultra-low dose Δ9-THC the concentration used is 0.01 µM. […] For celecoxib, 3-4 concentrations are used, ranging from 0.1 to 10 µM. Two hours following the treatment, the cultures are exposed to one of the following microglia stimulators: LPS (Sigma L2630; Escherichia coli serotype O111:B4) is dissolved in D-PBS (Sigma, D8537) to a pre-stock concentration of 1 mg/ml, aliquoted and stored at -80° C. Stock solution of LPS at 10 ug/ml is prepared using sterile D-PBS, followed by filtering via 0.22 µm filter membrane, aliquoting and storing in -20° C. LPS is applied into the cell medium at a final concentration of 100 ng/ml. Poly I:C (Sigma, P1530) was first dissolved in sterile, molecular grade water to the concentration of 10 mg/ml (following the manufacturer’s instructions). This stock solution was further diluted to the concentration of 1 mg/ml in sterile PBS, and the aliquots stored in -20 °C.

[2] = tested on: BV2 microglial cells; experiment: LPS-induced IL-6 release by BV2 microglia cell cultures (ELISA); assay type: cell-based, murine
Protocol: as §1, §2
(§3) For each individual cannabinoid mentioned above, 3-4 concentrations are used, ranging from 0.1 to 10 µM. For ultra-low dose Δ9-THC the concentration used is 0.01 µM. For each individual terpene or flavonoid mentioned above, 3-4 concentrations are used, ranging from 1 to 50 µM. For celecoxib, 3-4 concentrations are used, ranging from 0.1 to 10 µM. Two hours following the treatment, the cultures are exposed to one of the following microglia stimulators: LPS (Sigma L2630; Escherichia coli serotype O111:B4) is dissolved in D-PBS (Sigma, D8537) to a pre-stock concentration of 1 mg/ml, aliquoted and stored at -80° C. Stock solution of LPS at 10 ug/ml is prepared using sterile D-PBS, followed by filtering via 0.22 µm filter membrane, aliquoting and storing in -20° C. LPS is applied into the cell medium at a final concentration of 100 ng/ml. Poly I:C (Sigma, P1530) was first dissolved in sterile, molecular grade water to the concentration of 10 mg/ml (following the manufacturer’s instructions). This stock solution was further diluted to the concentration of 1 mg/ml in sterile PBS, and the aliquots stored in -20 °C.

[3] = tested on: LPS-injected mice; experiment: Body weight change and food consumption in the LPS-induced model of depression; assay type: in vivo; details: Example 9; male C57BL/6, i.p. 1 h before LPS 330 µg/kg; mg/kg: CBD 30; CBD 30 plus THC 10; cannabinol 10; CBD 30 plus BCP 50
From the text: Animals were housed 2-3/cage, kept in an air-conditioned room (23+°C) and given ad libitum access to food and water. The mice were kept in a reversed light/dark cycle, with lights off from 7 a.m. to 7 p.m. All experiments were approved by the Hebrew University of Jerusalem Ethics Committee on Animal Care and Use. In preparation for the Sucrose Preference Test, mice were habituated 2-3 times to sucrose drinking, by exposing them overnight to two graduated tubes, one containing water and the other containing sucrose solution (1%, w/v). Water and sucrose consumption were measured, and sucrose preference was computed by dividing the amount of sucrose consumed by drinking (ml sucrose) by the total drinking volume (ml of sucrose + water). One day later, the weight of the mice and the food in their cages was weighed for later analysis of food consumption and body weight changes. Groups of mice were injected intraperitoneally (i.p.) with either vehicle (cremophor, ethanol and PBS, 1:1:18 (v/v/v)) or a cannabinoid-based formulation (by itself or with another cannabinoid, or a terpene or a flavonoid). One hour later, each of these groups was injected with LPS (330 µg/kg). All injections were administered at a dose of 10 ml/kg. Four hours following the LPS injection, mice were tested in the Open-Field Test. In this test, the measured locomotor activity reflects not only motor capacity, but particularly the innate motivation for spatial exploration (which increases the distance travelled) and the anxiety level (which reduces the distance travelled, in general, and particularly the distance and time spent in the center of the open field). Each subject was placed near one of the walls of a white 50 X 50 cm^2 arena with 40 cm high walls. The distance travelled (cm), the velocity of the movement (cm/second), the time spent (seconds), distance travelled (cm) in the center area of the arena, as well as the number of entries from the perimeter area into the center of the arena were automatically measured over a 4-minute period, using EthoVision XT video tracking system and software (Noldus, The Netherlands). Twenty-four hours after the LPS injection, mice were tested in the Social Exploration Test. In this test, the subject was placed in an observation cage containing a small metal wire mesh cage with a conspecific mouse inside it. Social exploration, defined as the time of near contact between the nose of the subject and the juvenile in the small cage was recorded for 4 min, using computerized in-house software. Sucrose preference was assessed, as described above, between 8 to 27 hr post LPS injection. Body weight and weight of the food were measured two hours before the LPS injection, and again after 24 hours, and the change in body weight and food consumption were calculated.
This particular study was conducted in several experimental cohorts, and not all compounds and all measures were studied in all cohort. However, each cohort included a vehicle-treated group; therefore, the scores in each behavioral test were converted to % of mean vehicle-treated group in every individual cohort/experiment. Statistical comparisons were computed using SPSS software and consisted of one-way analyses of variance (ANOVA), followed by post-hoc comparisons with the Student-Newman-Keuls method.

[4] = tested on: BV2 microglial cells; experiment: α-synuclein-induced TNFα secretion by BV2 microglia cell cultures; assay type: cell-based, murine; details: Mus musculus
Protocol: as §2
as §3, with “°C. […] To induce oligomerization, α-Synuclein solution is placed for 24 hours on a shaker with agitation of 80 rpm and at 37° C.” for “°C.”

[5] = tested on: BV2 microglial cells; experiment: LPS-induced IL-1β release by BV2 microglia cell cultures (ELISA); assay type: cell-based, murine
Protocol: as §1, §2, §3

## CCCCCc1cc(O)c2c(c1)OC(C)(CCC=C(C)C)C=C2 (stereo not shown) [CBC, cannabichromene]
[1]
  effect on lipopolysaccharide-induced TNFα secretion: no effect

## C=C(C)[C@@H]1CCC(C)=C[C@H]1c1c(O)cc(CCC)cc1O [CBDV, cannabidivarin]
[1]; Example 6, IC50 comparison
  times less potent than CBD in inhibiting TNFα release: ~6 times
[1]; Example 6, by itself, CBD 1, 2.5 and 5 µM, CBDV 1, 2.5, 5 and 10 µM
  release of TNFα vs LPS-activated cultures treated with vehicle: no concentration of either CBD or CBDV by itself affected release of TNFα
[1]
  IC50: 27.9 µM
[2]; Example 6, CBD or CBDV given by themselves
  IL-6 secretion vs Veh plus LPS: no significant effect
[2]; Example 6, IC50 comparison
  times less potent than CBD in inhibiting IL-6 release: about 2 times
[2]; Mus musculus, BV-2, Example 6 (FIG. 7D), by itself, read-out: IC50 for inhibiting LPS-induced IL-6 release
  IC50: 9.6 µM

## CCCCCc1cc(O)c2c(c1)OC(C)(C)[C@@H]1CCC(C)=C[C@@H]21 [THC, Δ-9 tetrahydrocannabinol]
[1]
  effect on lipopolysaccharide-induced TNFα secretion: no effect

## CCCCCc1cc(O)c2c(c1)OC(C)(C)c1ccc(C)cc1-2 [cannabinol]
[3]
  food consumption over 24 hr vs vehicle-treated group: consumed significantly less food

## Cc1ccc(-c2cc(C(F)(F)F)nn2-c2ccc(S(N)(=O)=O)cc2)cc1 [celecoxib]
[4]; BV-2, Example 8 (FIG. 9B), by itself, read-out: IC50, α-synuclein-induced TNFα release
  IC50: 4.2 µM
[4]; BV-2, addition of 1 µM CBD, read-out: celecoxib IC50, α-synuclein-induced TNFα release
  IC50: 2 µM
[4]; BV-2, addition of 2.5 µM CBD, read-out: celecoxib IC50, α-synuclein-induced TNFα release
  IC50: 1.7 µM
[4]; BV-2, addition of 5 µM CBD, read-out: celecoxib IC50, α-synuclein-induced TNFα release
  IC50: 1.1 µM

## C=C(C)[C@H]1CC=C(C)CC1 [limonene]
[1]
  effect on lipopolysaccharide-induced TNFα secretion: no effects

## C=CC(C)(O)CCC=C(C)C (stereo not shown) [linalool]
[1]
  levels of TNFα compared to cultures treated with vehicle and LPS: reduced

## O=c1c(O)c(-c2ccc(O)c(O)c2)oc2cc(O)cc(O)c12 [quercetin]
[1]
  levels of TNFα compared to cultures treated with vehicle and LPS: reduced
  IC50: 6.2 µM
[1]; Example 5, by themselves, CBD 1 and 2.5 µM, quercetin 1, 2.5 and 5 µM
  release of TNFα vs LPS-activated cultures treated with vehicle: did not affect
[5]; Example 5, alone at 5 µM, no effect at 1 and 2.5 µM
  IL-1β release vs Veh plus LPS: significantly decreased IL-1β levels
[5]; Mus musculus, BV-2, Example 5 (FIG. 6D), by itself, read-out: IC50 for inhibiting LPS-induced IL-1β release
  IC50: 2.6 µM

## CC1=CCC2CC1C2(C)C (stereo not drawn) [α-pinene]
[1]
  effect on lipopolysaccharide-induced TNFα secretion: no effects

## C=C1CCC2CC1C2(C)C (stereo not drawn) [β-pinene]
[1]
  effect on lipopolysaccharide-induced TNFα secretion: no effects
